# Measured values reported in ChEMBL document CHEMBL1201862, “PubChem BioAssay data set” (2004).
# Where a name gives a salt, the structure may show the parent alone. Calls of active or inactive are those of the source.
# Tests used:
# [1] = HEK293T cytotoxicity, dose response, cytotoxicity control for miR-122 modulator project, cell-based, activator set, cherry-pick (AID 720690); assay type: functional;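 further: HEK293T human cells scored for general mammalian cytotoxicity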
# [2] = miR-122 activators in hepatoma reporter cells, dose response, cell-based, Huh7 psiCHECK-miR122, Renilla luciferase, cherry-picked (AID 651956); assay type: functional;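 further: huh7 hepatoma cells stably carrying a psiCHECK-2 miR-122 sensor plasmid; renilla luciferase signal reporting endogenous miR-122 activity after 48 h compound exposure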
# cells [3] = assay type: functional, cell-based
# [4] = target: T1, Trace amine-associated receptor 1 (Homo sapiens, UniProt Q96RJ0); experiment: Counterscreen for agonists of the human trace amine associated receptor 1 (hTAAR1): Fluorescence-based cell-based high throughput dose response assay to identify hTAAR1 agonist that also desensitize TAAR1 receptor response.; assay type: functional
# [5] = target: T1, Trace amine-associated receptor 1; experiment: Fluorescence-based cell-based high throughput dose response assay to identify agonists of the human trace amine associated receptor 1 (TAAR1).; assay type: functional
# cells [6] = assay type: functional, cell-based; remark: listed apart in the source
# Galanin receptor type 3 = Galanin receptor type 3 (Homo sapiens, UniProt O60755); experiment: Fluorescence-based cell-based primary high throughput dose response assay to identify antagonists of the Galanin Receptor 3 (GalR3).; assay type: functional
# cells [7] = assay type: functional, cell-based; settings: HEK-CNG
# [8] = A Cell-Based Confirmatory Screen for Compounds that Inhibit VEEV, TC-83 (7).; assay type: functional
# [9] = target: Potassium voltage-gated channel subfamily KQT member 2 (Rattus norvegicus, UniProt O88943); experiment: KCNQ2 channel inhibition, SAR follow-up, selectivity assay for TASK1 inhibitor project, cell-based, FluxOR thallium flux, concentration-response (AID 652192); assay type: functional
# [10] = target: Potassium channel subfamily K member 3 (Homo sapiens, UniProt O14649); experiment: TASK1 (KCNK3) potassium channel inhibitors, SAR follow-up, CHO cells, FluxOR thallium flux (AID 652212); assay type: functional
# [11] = target: Potassium channel subfamily K member 9 (Homo sapiens, UniProt Q9NPC2); experiment: TASK3 (KCNK9) channel inhibitors, thallium flux, SAR follow-up, selectivity assay for TASK1 inhibitor project, cell-based, FluxOR thallium flux, concentration-response (AID 652211); assay type: functional;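 further: potency is for inhibitors of the channel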
# [12] = Late stage assay provider results from the probe development effort to identify selective inhibitors of heat shock protein 90 (HSP90): Absorbance-based cell proliferation assay in MCF7 cells.; assay type: functional
# [13] = Late stage assay provider results from the probe development effort to identify selective inhibitors of heat shock protein 90 (HSP90): Absorbance-based cell proliferation assay in SKBR3 cells.; assay type: functional; settings: SK-BR-3
# cells [14] = settings: A549
# [15] = inhibitors of firefly luciferase expression or activity, dose response, H4 neuroglioma cells, luminescence (AID 1990); assay type: functional, cell-based
# cells [16] = settings: HEK293
# [17] = target: T2, DNA repair and recombination protein RAD54-like (Homo sapiens, UniProt Q92698); experiment: inhibitors of human RAD54 branch migration, confirmation, biochemical, fluorescence, cherry-picked samples, dose series (AID 651657); assay type: functional
# T2 sequence (Q92698 whole entry): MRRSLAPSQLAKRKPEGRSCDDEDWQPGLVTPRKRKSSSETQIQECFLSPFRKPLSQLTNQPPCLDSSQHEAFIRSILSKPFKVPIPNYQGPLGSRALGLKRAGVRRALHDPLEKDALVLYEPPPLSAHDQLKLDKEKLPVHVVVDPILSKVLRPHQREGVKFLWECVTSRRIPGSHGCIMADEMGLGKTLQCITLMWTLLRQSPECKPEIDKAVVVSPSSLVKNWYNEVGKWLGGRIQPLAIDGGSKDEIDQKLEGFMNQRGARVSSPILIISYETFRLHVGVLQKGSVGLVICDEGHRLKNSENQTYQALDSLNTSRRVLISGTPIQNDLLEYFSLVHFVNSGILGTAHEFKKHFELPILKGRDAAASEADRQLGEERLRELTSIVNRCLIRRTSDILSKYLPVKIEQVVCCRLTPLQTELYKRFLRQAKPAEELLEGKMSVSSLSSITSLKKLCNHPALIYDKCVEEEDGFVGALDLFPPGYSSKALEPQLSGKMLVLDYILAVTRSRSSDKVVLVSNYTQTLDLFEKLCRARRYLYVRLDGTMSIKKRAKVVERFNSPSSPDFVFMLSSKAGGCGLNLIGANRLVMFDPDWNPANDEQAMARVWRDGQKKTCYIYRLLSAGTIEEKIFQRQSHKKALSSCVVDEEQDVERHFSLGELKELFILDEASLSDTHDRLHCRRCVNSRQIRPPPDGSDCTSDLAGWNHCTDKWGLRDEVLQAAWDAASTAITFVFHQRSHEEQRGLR
# [18] = target: SWI/SNF-related matrix-associated actin-dependent regulator of chromatin subfamily A member 2 (Homo sapiens, UniProt P51531); experiment: Luminescence-based cell-based high throughput dose response assay to identify activators of the function of SWI/SNF related, matrix associated, actin dependent regulator of chromatin, subfamily a, member 2 (SMARCA2, BRM).; assay type: functional
# [19] = target: DNA repair protein RAD52 homolog (Homo sapiens, UniProt P43351); assay type: functional, biochemical
# [20] = Luminescence Cell-Based Dose Response HTS to Identify Inhibitors of 5'UTR Stem-Loop Driven Prion Protein mRNA Translation in H4 Neuroglioblastoma Cells. [Related pubchem assays: 1827 (Project Summary), 1813 (Primary HTS)]; assay type: functional
# HEK293 [21] = experiment: cells; settings: Homo sapiens
# [22] = HepG2 cell cytotoxicity, dose response, cytotoxicity control, ATP luminescence, cherry-pick, set 6 (AID 1053125); assay type: functional, cell-based
# [23] = Counterscreen for activators of the function of SWI/SNF related, matrix associated, actin dependent regulator of chromatin, subfamily a, member 2 (SMARCA2, BRM): Luminescence-based cell-based high throughput dose response assay to identify non-selective compounds using the VP16 reporter assay.; assay type: functional
# cells [24] = experiment: cells
# HEK293 [25] = experiment: cells; settings: Homo sapiens; remark: listed apart in the source
# T1 sequence (Q96RJ0 whole entry): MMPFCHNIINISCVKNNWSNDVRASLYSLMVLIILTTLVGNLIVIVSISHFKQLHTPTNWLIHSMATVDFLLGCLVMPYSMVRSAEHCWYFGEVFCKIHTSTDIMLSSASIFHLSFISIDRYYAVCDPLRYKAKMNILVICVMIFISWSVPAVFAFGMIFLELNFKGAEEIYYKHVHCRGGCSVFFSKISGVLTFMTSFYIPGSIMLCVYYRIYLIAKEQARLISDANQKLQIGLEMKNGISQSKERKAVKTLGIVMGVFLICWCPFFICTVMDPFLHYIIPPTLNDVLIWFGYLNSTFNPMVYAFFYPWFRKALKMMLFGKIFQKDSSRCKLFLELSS
# Potassium channel subfamily K member 9, sequence (Q9NPC2 whole entry): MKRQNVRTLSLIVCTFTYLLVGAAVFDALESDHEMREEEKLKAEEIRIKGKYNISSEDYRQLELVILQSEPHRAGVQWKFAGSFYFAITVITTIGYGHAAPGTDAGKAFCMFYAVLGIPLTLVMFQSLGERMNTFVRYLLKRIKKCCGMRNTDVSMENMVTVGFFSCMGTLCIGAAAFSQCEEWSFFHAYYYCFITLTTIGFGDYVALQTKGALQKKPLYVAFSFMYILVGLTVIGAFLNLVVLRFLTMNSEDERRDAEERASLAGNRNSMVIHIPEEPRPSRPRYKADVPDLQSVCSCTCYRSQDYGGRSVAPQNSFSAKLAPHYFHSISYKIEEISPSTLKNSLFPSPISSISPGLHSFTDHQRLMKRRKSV
# SWI/SNF-related matrix-associated actin-dependent regulator of chromatin subfamily A member 2, sequence (P51531 whole entry): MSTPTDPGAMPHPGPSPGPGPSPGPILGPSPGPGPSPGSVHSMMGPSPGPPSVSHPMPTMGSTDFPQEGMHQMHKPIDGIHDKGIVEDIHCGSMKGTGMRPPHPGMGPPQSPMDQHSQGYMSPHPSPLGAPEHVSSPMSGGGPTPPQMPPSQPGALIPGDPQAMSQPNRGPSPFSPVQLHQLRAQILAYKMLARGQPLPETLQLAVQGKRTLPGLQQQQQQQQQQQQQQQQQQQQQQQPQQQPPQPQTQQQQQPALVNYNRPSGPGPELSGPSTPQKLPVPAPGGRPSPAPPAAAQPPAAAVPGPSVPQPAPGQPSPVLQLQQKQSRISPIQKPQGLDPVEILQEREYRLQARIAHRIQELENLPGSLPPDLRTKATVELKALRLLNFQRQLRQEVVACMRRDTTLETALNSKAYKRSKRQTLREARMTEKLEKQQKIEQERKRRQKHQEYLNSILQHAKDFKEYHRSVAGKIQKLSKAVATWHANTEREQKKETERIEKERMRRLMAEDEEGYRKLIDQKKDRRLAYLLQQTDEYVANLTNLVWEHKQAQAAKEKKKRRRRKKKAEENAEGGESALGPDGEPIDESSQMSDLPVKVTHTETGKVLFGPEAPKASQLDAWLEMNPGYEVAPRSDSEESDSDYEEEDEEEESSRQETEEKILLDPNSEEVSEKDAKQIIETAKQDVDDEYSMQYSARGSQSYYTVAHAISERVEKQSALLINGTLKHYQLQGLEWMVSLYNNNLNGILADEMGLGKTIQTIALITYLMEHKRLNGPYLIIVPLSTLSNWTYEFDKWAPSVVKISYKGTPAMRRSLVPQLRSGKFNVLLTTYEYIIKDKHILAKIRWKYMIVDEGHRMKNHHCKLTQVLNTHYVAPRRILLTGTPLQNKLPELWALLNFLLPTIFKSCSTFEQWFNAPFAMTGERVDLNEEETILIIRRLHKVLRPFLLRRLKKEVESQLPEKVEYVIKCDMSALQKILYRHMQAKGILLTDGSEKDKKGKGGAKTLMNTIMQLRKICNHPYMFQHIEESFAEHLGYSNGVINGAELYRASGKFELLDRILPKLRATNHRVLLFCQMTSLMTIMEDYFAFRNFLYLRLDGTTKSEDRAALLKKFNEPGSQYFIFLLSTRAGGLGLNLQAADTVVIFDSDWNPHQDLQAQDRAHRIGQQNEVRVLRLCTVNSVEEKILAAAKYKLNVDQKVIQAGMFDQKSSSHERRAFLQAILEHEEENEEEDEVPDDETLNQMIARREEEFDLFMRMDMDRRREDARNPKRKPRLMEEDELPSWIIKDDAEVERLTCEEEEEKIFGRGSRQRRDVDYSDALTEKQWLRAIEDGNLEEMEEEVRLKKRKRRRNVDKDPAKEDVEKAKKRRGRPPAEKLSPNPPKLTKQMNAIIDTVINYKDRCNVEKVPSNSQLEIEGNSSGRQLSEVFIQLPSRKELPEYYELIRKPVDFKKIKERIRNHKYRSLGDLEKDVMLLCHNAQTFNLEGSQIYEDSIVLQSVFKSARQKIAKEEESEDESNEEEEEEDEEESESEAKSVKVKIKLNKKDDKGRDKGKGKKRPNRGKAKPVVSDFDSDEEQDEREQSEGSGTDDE
# Potassium voltage-gated channel subfamily KQT member 2, sequence (O88943 whole entry): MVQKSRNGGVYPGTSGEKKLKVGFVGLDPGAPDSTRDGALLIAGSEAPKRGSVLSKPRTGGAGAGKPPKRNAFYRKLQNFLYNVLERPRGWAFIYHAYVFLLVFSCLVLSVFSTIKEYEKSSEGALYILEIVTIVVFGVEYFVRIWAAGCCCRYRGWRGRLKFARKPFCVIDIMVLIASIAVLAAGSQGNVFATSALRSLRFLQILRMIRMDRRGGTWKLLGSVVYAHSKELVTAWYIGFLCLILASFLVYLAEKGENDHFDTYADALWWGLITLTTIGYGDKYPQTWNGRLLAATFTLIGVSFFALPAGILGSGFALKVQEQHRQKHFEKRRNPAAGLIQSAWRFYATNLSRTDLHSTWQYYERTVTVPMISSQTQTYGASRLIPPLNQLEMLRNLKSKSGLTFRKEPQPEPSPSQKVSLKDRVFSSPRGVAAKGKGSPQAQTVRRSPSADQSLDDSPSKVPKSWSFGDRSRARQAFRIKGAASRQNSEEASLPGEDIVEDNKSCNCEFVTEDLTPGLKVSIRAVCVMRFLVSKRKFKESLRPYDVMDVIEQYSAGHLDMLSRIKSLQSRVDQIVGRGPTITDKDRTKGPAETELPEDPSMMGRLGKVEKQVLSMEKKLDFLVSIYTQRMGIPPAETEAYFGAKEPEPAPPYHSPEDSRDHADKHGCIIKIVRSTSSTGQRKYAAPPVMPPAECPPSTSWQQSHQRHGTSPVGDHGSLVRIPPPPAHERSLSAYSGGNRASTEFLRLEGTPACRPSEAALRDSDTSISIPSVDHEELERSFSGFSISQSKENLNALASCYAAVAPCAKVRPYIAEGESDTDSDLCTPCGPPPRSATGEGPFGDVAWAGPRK
# Potassium channel subfamily K member 3, sequence (O14649 whole entry): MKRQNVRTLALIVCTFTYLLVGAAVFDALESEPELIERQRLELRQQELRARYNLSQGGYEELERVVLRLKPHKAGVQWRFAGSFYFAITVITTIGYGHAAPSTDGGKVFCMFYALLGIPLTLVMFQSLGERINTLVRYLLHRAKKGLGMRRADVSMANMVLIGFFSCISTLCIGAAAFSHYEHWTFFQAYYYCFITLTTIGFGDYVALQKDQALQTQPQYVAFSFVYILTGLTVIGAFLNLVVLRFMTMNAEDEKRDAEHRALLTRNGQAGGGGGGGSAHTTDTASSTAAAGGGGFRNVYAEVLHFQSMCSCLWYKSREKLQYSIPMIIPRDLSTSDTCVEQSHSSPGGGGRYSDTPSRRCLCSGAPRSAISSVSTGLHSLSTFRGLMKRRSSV
# DNA repair protein RAD52 homolog, sequence (P43351 whole entry): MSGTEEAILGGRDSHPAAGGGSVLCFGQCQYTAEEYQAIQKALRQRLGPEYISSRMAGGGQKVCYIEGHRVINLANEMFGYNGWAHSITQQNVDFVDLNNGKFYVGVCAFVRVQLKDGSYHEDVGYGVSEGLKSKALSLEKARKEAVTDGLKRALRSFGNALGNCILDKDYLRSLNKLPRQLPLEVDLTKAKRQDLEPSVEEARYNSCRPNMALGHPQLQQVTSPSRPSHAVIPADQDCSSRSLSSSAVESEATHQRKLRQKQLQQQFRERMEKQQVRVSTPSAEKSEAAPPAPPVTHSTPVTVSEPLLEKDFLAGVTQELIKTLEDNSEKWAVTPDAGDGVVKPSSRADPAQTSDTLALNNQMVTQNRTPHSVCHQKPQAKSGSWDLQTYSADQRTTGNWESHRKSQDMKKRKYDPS
# Galanin receptor type 3, sequence (O60755 whole entry): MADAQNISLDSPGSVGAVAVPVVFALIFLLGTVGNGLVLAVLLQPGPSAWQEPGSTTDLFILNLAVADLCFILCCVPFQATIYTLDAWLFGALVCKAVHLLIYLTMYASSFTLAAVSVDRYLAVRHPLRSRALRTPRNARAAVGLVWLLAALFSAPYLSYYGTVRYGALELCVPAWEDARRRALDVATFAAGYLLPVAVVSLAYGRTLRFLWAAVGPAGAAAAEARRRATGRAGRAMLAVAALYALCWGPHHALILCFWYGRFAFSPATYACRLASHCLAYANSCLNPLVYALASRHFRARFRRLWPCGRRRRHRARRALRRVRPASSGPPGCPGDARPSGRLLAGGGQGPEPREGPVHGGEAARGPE
structure (smiles),measurement,setting,value
C[C@@H]1CCCCO[C@H](CN(C)CC2CCCCC2)[C@H](C)CN([C@@H](C)CO)C(=O)c2cc(NC(=O)Nc3ccc(C(F)(F)F)cc3)ccc2O1,AC50,[1],4.83 µM (active)
same,AC50,[2],2.85 µM (active)
CC(C)[C@H](NC(=O)C1CCCC1)C(=O)N1CCC[C@H]1C(=O)NCCc1ccccc1Cl,IC50,cells [3],> 29.9 µM (inactive)
same,IC50,[4],3.8 µM (active)
same,EC50,[5],0.897 µM (active)
same,EC50,cells [6],> 29.9 µM (inactive)
Cc1cc(Br)cn2c(Cc3ccccc3C(F)(F)F)c(-c3ccco3)nc12,IC50,Galanin receptor type 3,14.5 µM (inactive)
same,EC50,cells [7],> 29.9 µM (inactive)
CN1CCN(C)/C(=N/c2ccc([N+](=O)[O-])cc2C(=O)Nc2ccccc2F)C1,IC50,[8],0.15 µM (active)
COc1cnccc1C(=O)Nc1cccc(NC(=O)c2cccc(C)c2)c1,IC50,[9],7.58 µM (active)
same,IC50,[10],0.18 µM (active)
same,IC50,[11],2.43 µM (active)
Cc1c(N/C=C2/C=C(Br)C(=O)OC2=O)c(=O)n(-c2ccccc2)n1C,IC50,[12],3 µM (active)
same,IC50,[13],16 µM (inactive)
Nc1c2ccccc2nc2ccccc12 [AMINACRINE HYDROCHLORIDE],AC50,cells [14],4.06 µM (active)
same,EC50,[15],> 120 µM (not active)
same,AC50,cells [16],2.57 µM (active)
same,AC50,[17],2.76 µM (active)
same,EC50,[18],> 3.38 µM (active)
same,AC50,[19],< 1.92 µM (active)
same,EC50,[20],> 60 µM (not active)
same,EC50,HEK293 [21],> 2.21 µM (active)
same,AC50,[22],7.15 µM (active)
same,EC50,[23],> 91.1 µM (inactive)
same,AC50,cells [24],0.341 µM (active)
same,EC50,HEK293 [25],> 59.7 µM (inactive)
